In US8389523B2, “Substituted quinoxaline and an agrochemical composition thereof” (Kumiai Chemical Industry Co., Ltd., priority 2007, dated 2013):

Assays:
Assay type in all cases: in vivo
Set-up in all cases: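 grade 0 to 5 of growth suppression where 5 is 90% or more and 0 below 10%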
Amaranthus viridis L. = assay: Herbicidal effects in upland field soil treatment (Test Example 2); conditions: 1000 g active ingredient per hectare, 21st day after treatment, criteria of Table 138
Protocol: (§1) Test Example 2 Test on Herbicidal Effects in Upland Field Soil Treatment A 80-cm^2 plastic pot was filled with upland field soil. Seeds of Abutilon theophrasti medicus and Amaranthus viridis L. were sowed, and soil was covered. A wettable powder formulation prepared according to Preparation Example 1 was diluted with water, and was uniformly sprayed on the soil surface with a small sprayer, in an amount equivalent to 1000 liters per hectare, such that 1000 g of the active ingredient per hectare was applied. Thereafter, the plants were grown in a greenhouse, and on the 21st day after the treatment, the herbicidal effects were investigated according to the criteria described in the Table 138 shown above.

[1] = tested on: Abutilon theophrasti medicus; assay: as above; conditions: 1000 g active ingredient per hectare, 21st day after treatment, criteria of Table 138
Protocol: as §1

[2] = tested on: Monochoria vaginalis (Burm. f.) Presl var. plantaginea (Roxb.) Solms-Laub.; assay: Herbicidal effects in paddy field soil treatment (Test Example 1); conditions: paddy field soil treatment; 1000 g of the active ingredient per hectare; wettable powder added dropwise on water surface; 21st day after treatment
Protocol: (§2) Test for Herbicidal Effects in Paddy Field Soil Treatment
(§3) A 100-cm^2 plastic pot was filled with paddy field soil. After puddling and leveling, seeds of Echinochloa oryzicola Vasing, Monochoria vaginalis (Burm. f.) Presl var. plantaginea (Roxb.) Solms-Laub., and Scirpus juncoides Roxb. var. ohwianus. T. Koyama were sowed, and the soil was waterlogged to a water depth of 3 cm. On the next day, a wettable powder formulation prepared according to Preparation Example 1 was diluted with water, and was added dropwise on the water surface. The amount of application was an amount equivalent to 1000 g of the active ingredient per hectare. Thereafter, the plants were grown in a greenhouse, and on the 21st day after the treatment, the herbicidal effects were investigated according to the criteria described in Table 138.

[3] = tested on: Scirpus juncoides Roxb. var. ohwianus. T. Koyama; assay: as above; conditions: paddy field soil treatment; 1000 g of the active ingredient per hectare; wettable powder added dropwise on water surface; 21st day after treatment
Protocol: as §2, §3

[4] = tested on: Echinochloa oryzicola Vasing; assay: as above; conditions: paddy field soil treatment; 1000 g of the active ingredient per hectare; wettable powder added dropwise on water surface; 21st day after treatment
Protocol: as §2, §3

Row | SMILES | herbicidal effect (index) on Amaranthus viridis L. (Amaranthus viridis L.) | herbicidal effect (index) on Abutilon theophrasti medicus [1] | Herbicidal effects index, Monochoria vaginalis (Burm. f.) Presl var. plantaginea (Roxb.) Solms-Laub. [2] | Herbicidal effects index, Scirpus juncoides Roxb. var. ohwianus. T. Koyama [3] | Herbicidal effects index, Echinochloa oryzicola Vasing [4]
1 | CC(C)(C)n1c(=O)c(C(=O)C2=C(O)CCCC2=O)nc2ccccc21 [I-18] | 5 | 5 |  |  | 
2 | O=C1CCCC(O)=C1C(=O)c1nc2ccccc2n(COc2ccccc2)c1=O [I-57] | 5 | 4 | 5 | 5 | 4
3 | CS(=O)(=O)Cn1c(=O)c(C(=O)C2=C(O)CCCC2=O)nc2ccccc21 [I-80] | 5 | 5 |  |  | 
4 | O=C1CCCC(O)=C1C(=O)c1nc2ccccc2n(Cc2ccc(Cl)cc2)c1=O [I-113] |  |  | 5 | 5 | 5
5 | COc1ccccc1Cn1c(=O)c(C(=O)C2=C(O)CCCC2=O)nc2ccccc21 [I-120] |  |  | 5 | 5 | 4
6 | COc1cccc(Cn2c(=O)c(C(=O)C3=C(O)CCCC3=O)nc3ccccc32)c1 [I-125] |  |  | 5 | 5 | 4
7 | COc1ccc(Cn2c(=O)c(C(=O)C3=C(O)CCCC3=O)nc3ccccc32)cc1 [I-126] |  |  | 5 | 5 | 4
8 | Cn1nc(C(F)(F)F)nc1-n1c(=O)c(C(=O)C2=C(O)CCCC2=O)nc2ccccc21 [I-165] | 5 | 5 | 5 | 5 | 5
9 | O=C1CCCC(O)=C1C(=O)c1nc2ccccc2n(C2CCSCC2)c1=O [I-166] |  |  | 5 | 5 | 4
10 | Cc1ccc(-n2c(=O)c(C(=O)C3=C(O)CCCC3=O)nc3ccccc32)nc1 [I-178] | 5 | 5 | 5 | 5 | 4
11 | O=C1CCCC(O)=C1C(=O)c1nc2ccccc2n(-c2ccc3c(c2)OCCO3)c1=O [I-209, 1-(2,3-dihydrobenzo[b]1,4-dioxin-6-yl)-3-(2-hydroxy-6-oxo-1-cyclohexenecarbonyl)-quinoxalin-2(1H)-one] | 5 | 4 | 5 | 5 | 4
12 | Cn1c(=O)c(C(=O)C2=C(O)CCCC2=O)nc2c(Cl)cccc21 [I-223] | 5 | 5 | 5 | 5 | 4
13 | Cn1c(=S)c(C(=O)C2=C(O)CCCC2=O)nc2ccccc21 [I-256, 3-hydroxy-2-(1-methyl-2-thioxo-1,2-dihydroquinoxalin-3-yl-carbonyl)-2-cyclohexen-1-one] | 5 | 5 |  |  | 
14 | CCNc1nc(NC(C)C)nc(-n2c(=O)c(C(=O)C3=C(O)CCCC3=O)nc3ccccc32)n1 [I-274] |  |  | 5 | 4 | 5
15 | Cn1ccc2cc(-n3c(=O)c(C(=O)C4=C(O)CCCC4=O)nc4ccccc43)ccc21 [I-276] |  |  | 5 | 5 | 5
16 | O=C1CCCC(O)=C1C(=O)c1nc2cc(F)ccc2n(Cc2ccccc2)c1=O [I-280] |  |  | 5 | 5 | 5
17 | CC(=O)c1ccc(-n2c(=O)c(C(=O)C3=C(O)CCCC3=O)nc3ccccc32)cc1 [II-140] |  |  | 5 | 4 | 5

Row | SMILES | herbicidal effect (index) on Amaranthus viridis L. (Amaranthus viridis L.) | herbicidal effect (index) on Abutilon theophrasti medicus [1] | Herbicidal effects index, Monochoria vaginalis (Burm. f.) Presl var. plantaginea (Roxb.) Solms-Laub. [2] | Herbicidal effects index, Scirpus juncoides Roxb. var. ohwianus. T. Koyama [3] | Herbicidal effects index, Echinochloa oryzicola Vasing [4]
18 | COC(=O)c1ccc(-n2c(=O)c(C(=O)C3=C(O)CCCC3=O)nc3ccccc32)cc1 [II-146] | 5 | 4 |  |  | 
19 | COc1ccc(-n2c(=O)c(C(=O)C3=C(O)CCCC3=O)nc3ccccc32)cc1OC [II-169] |  |  | 5 | 5 | 5
20 | COc1ccc(-n2c(=O)c(C(=O)C3=C(O)CCCC3=O)nc3ccccc32)c(Cl)c1 [II-175] |  |  | 5 | 5 | 4
21 | COc1ccc(-n2c(=O)c(C(=O)C3=C(O)CCCC3=O)nc3ccccc32)c(OC)c1 [II-177] |  |  | 5 | 5 | 4
22 | COc1ccc(-n2c(=O)c(C(=O)C3=C(O)CCCC3=O)nc3ccccc32)cc1Cl [II-179] |  |  | 5 | 5 | 4
23 | COc1ccc(-n2c(=O)c(C(=O)C3=C(O)CCCC3=O)nc3cc(F)ccc32)cc1 [II-187] |  |  | 5 | 5 | 5
24 | COc1ccc(-n2c(=O)c(C(=O)C3=C(O)CCCC3=O)nc3cc(Cl)ccc32)cc1 [II-195] |  |  | 5 | 5 | 5
25 | O=C1CCCC(O)=C1C(=O)c1nc2ccccc2n(-c2ccc(OCC(F)(F)F)cc2)c1=O [II-209] |  |  | 5 | 5 | 5
26 | COc1ccc(-n2c(=O)c(C(=O)C3=C(O)CCCC3=O)nc3cc(C)ccc32)cc1 [II-246] |  |  | 5 | 5 | 4
27 | COc1c(F)cc(-n2c(=O)c(C(=O)C3=C(O)CCCC3=O)nc3ccc(C)cc32)cc1F [II-248] |  |  | 5 | 5 | 5
28 | COc1ccc2c(c1)nc(C(=O)C1=C(O)CCCC1=O)c(=O)n2-c1ccccc1 [II-250] | 5 | 5 |  |  | 
29 | COc1ccc(-n2c(=O)c(C(=O)C3=C(O)CCCC3=O)nc3ccc(OC)cc32)cc1 [II-253] |  |  | 5 | 5 | 5
30 | COc1ccc(-n2c(=O)c(C(=O)C3=C(O)CCCC3=O)nc3c(F)c(F)ccc32)cc1 [II-258] |  |  | 5 | 5 | 4
31 | COc1ccc(-n2c(=O)c(C(=O)C3=C(O)CCCC3=O)nc3c(Cl)cc(Cl)cc32)cc1 [II-262] | 5 | 4 |  |  | 
32 | COc1ccc(-n2c(=O)c(C(=O)C3=C(O)CCCC3=O)nc3c(F)c(F)c(OC)c(F)c32)cc1 [II-302] | 5 | 4 |  |  | 
33 | CC(C(=O)OC(C)(C)C)n1c(=O)c(C(=O)C2=C(O)CCCC2=O)nc2cccnc21 (centres unmarked) [III-233] | 5 | 5 |  |  | 
